From PubChem BioAssay (NCI)
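Exposure lasted 48 hours, with cells grown in 96-well plates and compounds tested at five concentrations. Definition used: TGI = concentration required for complete inhibition of growth.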

Columns and labels:
Assay in all cases: DTP human tumour cell line panel, 48 h
HCC-2998 colon = test system: HCC-2998 colon
HOP-92 NSCLC = test system: HOP-92 NSCLC
MCF7 breast = test system: MCF7 breast
MDA-MB-435 = test system: MDA-MB-435
NCI/ADR-RES ovarian = test system: NCI/ADR-RES ovarian
SNB-19 CNS = test system: SNB-19 CNS
UACC-62 melanoma = test system: UACC-62 melanoma
IGROV1 ovarian = test system: IGROV1 ovarian
MOLT-4 leukemia = test system: MOLT-4 leukemia
SK-OV-3 ovarian = test system: SK-OV-3 ovarian

| SMILES | TGI (HCC-2998 colon) | TGI (HOP-92 NSCLC) | TGI (MCF7 breast) | TGI (MDA-MB-435) | TGI (NCI/ADR-RES ovarian) | TGI (SNB-19 CNS) | TGI (UACC-62 melanoma) | TGI (IGROV1 ovarian) | TGI (MOLT-4 leukemia) | TGI (SK-OV-3 ovarian) |
| --- | --- | --- | --- | --- | --- | --- | --- | --- | --- | --- |
| S=C(N/N=C/c1ccccn1)N1CCCCCC1 | > 38.1 µM | > 100 µM | 25.3 µM | 96.8 µM | 0.105 µM | > 100 µM | 0.364 µM |  |  |  |
| COCCOCOC(C)(C)[C@H](CCO)O[Si](c1ccccc1)(c1ccccc1)C(C)(C)C | 18.9 µM | 23.6 µM |  |  |  | 31.7 µM | 28.3 µM | 22.9 µM | 22.9 µM | 26.5 µM |
| Oc1cccnc1/C=N/OCc1ccccc1 | > 100 µM |  |  |  |  | > 100 µM | > 100 µM | > 100 µM | > 100 µM | > 100 µM |
| CNC(=O)N1N[C@H](c2ccccc2)[C@@H]1c1ccccc1 | 68.8 µM | 91.2 µM | 62.5 µM |  | 36.6 µM | > 100 µM | 26.8 µM | 56.4 µM | 71.1 µM | 91.2 µM |
| O=C(O)C12CC3CC(CC(F)(C3)C1)C2 | > 100 µM | > 100 µM |  |  |  |  | > 100 µM | > 100 µM | > 100 µM | > 100 µM |
| O=C(O)CC12CC3CC(CC(O)(C3)C1)C2 | > 100 µM | > 100 µM | > 100 µM | > 100 µM | > 100 µM | > 100 µM | > 100 µM | > 100 µM |  | > 100 µM |
| O=c1ccc2ccccc2c2ccccc12 | 21.4 µM |  |  |  |  | 8.73 µM | 7.12 µM | 19 µM | 20.3 µM | 13 µM |
| c1cc(CN2CCNCCNCCNCC2)cc(CN2CCNCCNCCNCC2)c1 | > 100 µM |  | > 100 µM | > 100 µM | > 100 µM | > 100 µM | > 100 µM | > 100 µM | > 100 µM | > 100 µM |
| O=C1/C(=C/c2cccs2)NC(=S)N1CN1CCCCC1 |  | > 100 µM | > 100 µM | > 100 µM | > 100 µM | > 100 µM | > 100 µM | > 100 µM | > 100 µM | > 100 µM |
| N#Cc1c(-c2ccccc2)cc(-c2ccccc2)n(C2OCC(O)C(O)C2O)c1=S (centres undefined) |  |  | 41.7 µM | 45.2 µM | 86.5 µM | 89.7 µM | 16.1 µM | 33.5 µM | > 100 µM | 27.3 µM |
| CSc1ccc2c(cc1=O)C(NC(=O)c1ccc(C#N)cc1)CCc1cc(O)c(O)c(O)c1-2 (centres undefined) | 81.6 µM |  |  |  |  | > 100 µM | 46.3 µM |  | 59 µM | 63.7 µM |
| CCC(C)N1CN(c2ccccc2)C2(CCN(CCCSc3ccc(F)cc3)CC2)C1=O (centres undefined) | 4.22 µM |  | 11.1 µM | 11.7 µM | 11 µM | 19.7 µM | 17.5 µM | 14.2 µM | 13.3 µM | 19.1 µM |
| C/C(N)=N/OCc1nc(C)no1 | > 100 µM |  | > 100 µM | > 100 µM | > 100 µM | > 100 µM | > 100 µM |  | > 100 µM | > 100 µM |
| CC(=O)NCCCCN(CCCNC(C)=O)C(=O)OCc1ccccc1 | > 100 µM | > 100 µM | > 100 µM | > 100 µM | > 100 µM |  | > 100 µM | > 100 µM | > 100 µM | > 100 µM |
| CC(C)N(C(=O)C12C3C4C1C1C2C3C41C(=O)N(C(C)C)C(C)C)C(C)C (centres undefined) | > 50 µM |  |  |  |  | > 50 µM | > 50 µM | > 50 µM | > 50 µM | > 50 µM |
| COC(=O)c1ccc(C=C(C#N)C#N)cc1 | 32.9 µM | 39.6 µM |  |  |  | > 100 µM | 57.6 µM | 73.8 µM | 65.7 µM | > 100 µM |
| C[C@@]1(OC(=O)c2cc([N+](=O)[O-])cc([N+](=O)[O-])c2)C[C@@H]2CCCC[C@@H]21 | > 100 µM |  | > 100 µM |  | > 100 µM | > 100 µM | > 100 µM | > 100 µM | > 100 µM | > 100 µM |
| CN1CCC/C1=C1/C(=O)N(c2ccccc2)N=C1c1ccc[nH]1 | > 100 µM |  | > 100 µM | > 100 µM | > 100 µM | > 100 µM | > 100 µM | > 100 µM | > 100 µM |  |
| Nc1nc2c(ncn2CCCC(c2ccccc2)P(=O)(O)O)c(=O)[nH]1 (centres undefined) | > 100 µM | > 100 µM |  |  |  | > 100 µM | > 100 µM | > 100 µM | > 100 µM | > 100 µM |
| CSc1c(C#N)c(S)n(-c2ccc(Cl)cc2)c(=O)c1C#N | > 100 µM |  | > 100 µM | > 100 µM | > 100 µM | > 100 µM | > 100 µM | > 100 µM | > 100 µM | > 100 µM |
| CSC(=N)N1N=C2/C(=C/c3ccccc3)CCC[C@H]2[C@H]1c1ccccc1 | 10.4 µM | 19.5 µM |  |  |  | 19.3 µM | 23.9 µM | 9.18 µM | 12.6 µM | 18.2 µM |
| Cc1nnc(N/N=C(/C(=O)C(C#N)c2ccc(Cl)cc2)C(C#N)c2ccc(Cl)cc2)n1N (centres undefined) | 34.2 µM | > 100 µM |  |  |  | 27.9 µM |  |  | > 100 µM |  |
| Nc1[nH]c(=O)[nH]c(=O)c1Cc1cccc(Cl)c1 | > 100 µM | > 100 µM | 48.8 µM | > 100 µM | > 100 µM | > 100 µM | > 100 µM | > 100 µM |  | > 100 µM |
| COC(=O)CCC(NC(=S)N/N=C(\C)c1cnccn1)C(=O)OC (centres undefined) | > 100 µM | > 100 µM |  |  |  | > 100 µM | 90.2 µM | > 100 µM | 61 µM | > 100 µM |
| CC(=O)N(CC(=O)C(=O)NNc1ccoc1)c1ccc(Cl)cc1 | > 100 µM | > 100 µM | > 100 µM | > 100 µM | > 100 µM | > 100 µM |  | > 100 µM | > 100 µM | > 100 µM |
| CSc1nc2c3ccccc3ccn2c1C(=O)N/N=C/c1ccccc1 | > 100 µM | > 33.8 µM | > 100 µM | > 100 µM | > 71.9 µM |  | > 100 µM | > 100 µM | > 100 µM | 43.7 µM |
| C=C(CCC=C(C)C)C1CC=C(C)CC1 (centres undefined) |  |  | 42.2 µM | 35.7 µM | > 100 µM | > 100 µM | > 100 µM | 28.4 µM |  | > 100 µM |
